Reference: patent publication US10457702B2, “Dicaffeoyl spermidine cyclized derivatives and use thereof” (Jinan University, priority 2016, dated 2019)

Assays:
[1] = system: Senile dementia fruit fly (Aβ42, P35*H29.3); experiment: Learning and memory (olfactory short-term memory, T-Maze performance index) of Senile dementia fruit fly; format: in vivo; settings: for improvement of learning and memory function of Senile dementia fruit fly (in words): 100 μM, compared with untreated disease flies and positive control drug memantine; for PI (100 μM) learning and memory performance index: Senile dementia disease flies (P35*H29.3), drug administered at 100 μM, n = 6
Source text: (1) Cultivation of Senile Dementia Fruit Fly W^1118 (isoCJI), as a background fruit fly of control group in the experiment, was abbreviated as “2U”. The fruit flies that successfully introduced with the pathogenic Aβ42 protein were (UAS-Aβ42; abbreviated as “H29.3”). This strain of fruit flies was hybridized with the fruit fly expressing the Gal4 promoter in whole brain, and the fruit fly strain carrying elav-GAL4^[…] (P35) and Aβ42 was obtained. (2) Administration of Senile Dementia Fruit Fly Three groups of drug-free control of healthy fruit fly, drug-free control of disease fruit fly, and dose disease fruit fly were set in the experiment. All parents of tested fruit flies were housed and propagated at a constant temperature of 24° C. and a humidity of 42% RH (Relative humidity). On the first day after the emergence of the fruit flies, the fruit flies of control group and disease group, as well as the fruit flies to be administered were anesthetized with carbon dioxide, and the fruit flies of the correct characters were selected into the glass tube containing food. During the dosing period, all test fruit flies were kept in an incubator with a constant temperature of 28° C. and a constant humidity of 42% to ensure the drug taking efficiency of the fruit flies. Each day the fruit flies were administered for 4 hours, and the drug was administered from the second day after the fruit flies were selected until the 8th day. The drugs administered were prepared on the second day after the fruit fly selection, and were administered to the fruit flies on the day of preparation. The drugs were dissolved by 100% DMSO to a concentration of 10 mM. When preparing the working solution, the 10 mM stock solution was diluted to 100 μM with 4% sucrose. In addition, the fruit flies of control group were fed sucrose water containing 1% DMSO. For each Performance Index, two tubes of fruit fly groups are required, each tube containing about 100 fruit flies. Experiments were conducted in a light proof behavior room with constant temperature of 25 ° C., constant humidity of 70%. The method can be found in references ^[1-3]. 1) During the training stage, about 100 flies were loaded into a training tube provided with a copper mesh cross electrode. Two kinds of odors of octanol (OCT) and methylcyclohexanol (MCH) were successively introduced for each 60 s with an intervals for 45 s of fresh air. 60 V pulsed electrical shock stimulation (US, pulse duration 1.5 s, interval 3.5 s) was applied to the fruit flies while introducing the 1st odor. No electrical shock was applied when the second odor (CS-) was introduced. Thereby one training cycle was completed. 2) In the transient memory (learning) ability test, the fruit flies that completed one training cycle were immediately transferred to the selection point of T-Maze, while CS+ and CS- were introduced from the opposite two directions. After two minutes of selection, the fruit flies on both sides were collected separately and counted after anesthesia or sacrifice. […] When performing the activity test, the short-term memory deficit tests for the olfactory sensation of the non-administered healthy flies with the same genetic background (2U*H29.3), non-administered Senile dementia disease flies (P35*[…].3), and test drug administered Senile dementia disease flies were also conducted, and their total learning and memory performance indexes (PIs) was calculated respectively. […]

[2] = Oxygen radical absorbance capacity (ORAC) antioxidant experiment; settings: for ORAC value (μmol TE/μmol): relative to Trolox standard, AAPH, fluorescein
Procedure: The antioxidant activity of the compounds was evaluated by using the oxygen radical absorbance capacity (ORAC) experiment. The detailed experimental procedure is as follows. 0.248 g of AAPH (2,2′-azobisisobutylamidine dihydrochloride) was added to a 50 mL phosphate buffer system to formulate a 18.3 mM AAPH stock solution. 20 μL of phosphate buffer, 20 μL solution of sample to be tested or standard substance Trolox (concentration of 6.25 μM) and 20 μL of fluorescent substance of disodium fluorescein (FL, concentration of 630 nM) were added into the wells of a 96-well plate in order. Then, 140 μL of AAPH (concentration of 18.3 mM) was quickly added to the wells of a 96-well plate, which was immediately placed in a GENios […] microplate reader manufactured by Tecan, Switzerland, the excitation wavelength was set as 485 nm and the emission wavelength was set as 527 nm. The fluorescence intensity was measured every 2 minutes and recorded for a total of 100 min.
The antioxidant capacity of the active substance is calculated as follows: Relative ORAC value=(AUCsample−AUCblank)/(AUCtrolox−AUCblank). Wherein, AUCsample refers to the integral area under the fluorescence decay curve of the test sample, AUCtrolox refers to the integral area under the fluorescence decay curve of the standard substance Trolox, and AUCblank refers to the integral area under the fluorescence decay curve when the test sample or the standard substance Trolox is not added.

| Compound | improvement of learning and memory function of Senile dementia fruit fly (in words) [1] | PI (100 μM) learning and memory performance index [1] | ORAC value (μmol TE/μmol) [2] [μmol TE/μmol] | antioxidant activity (in words) ([2]; ORAC, compared with positive control EGCG) |
| --- | --- | --- | --- | --- |
| O=C1/C=C/c2ccc(O)c(c2)Oc2cc(O[C@@H]3O[C@H](CO)[C@@H](O)[C@H](O[C@@H]4O[C@H](CO)[C@@H](O)[C@H](O)[C@H]4O)[C@H]3O)c(O)cc2CCC(=O)NCCCCNCCCN1 [Formula III] | superior to the positive control drug | 45.9 ± 1.9*** | 0.96 ± 0.03 |  |
| CC12CC3CC(C)(C1)CC(N)(C3)C2 [Memantine, memantine, reference compound] |  | 44.2 ± 2.1*** |  |  |
| O=C(O[C@@H]1Cc2c(O)cc(O)cc2O[C@@H]1c1cc(O)c(O)c(O)c1)c1cc(O)c(O)c(O)c1 [EGCG, epigallocatechin gallate, reference compound] |  |  | 1.48 ± 0.02 |  |
| O=C1/C=C/c2ccc(O)c(c2)Oc2cc(O[C@@H]3O[C@H](CO)[C@@H](O)[C@H](O)[C@H]3O)c(O)cc2CCC(=O)NCCCCNCCCN1 [Formula II] | significantly improve the learning and memory function | 37.1 ± 2.2** | 1.48 ± 0.01 | comparable to that of the positive control drug |
